Measured values published in patent publication US7098007B2, “Cloning and functional assays of Xenopus ATR” (California Institute of Technology, priority 2001, dated 2006).
Entries after “also recorded” stand apart in the source; their conditions may differ.

What was measured:
ATM = ATM (Homo sapiens, UniProt Q13315); conditions: cited from earlier work
Xchk1 = test: Phosphorylation of Xchk1 in Xenopus egg extracts; assay type: biochemical
Method: To address this question, we first measured phosphorylation of Xchk1 in egg extracts undergoing a checkpoint delay in response to a block to DNA replication. […] Briefly, ^35S-labeled wildtype or mutant Xchk1 (T314A, S344A, T314A+S344A, S356A, S365A, S356A+S365A, 4AQ) protein was incubated with egg extracts in the presence or absence of aphidicolin. ^35S labeled proteins were isolated and analyzed by gel electrophoresis for a phosphorylation-dependent shift in mobility.
Using the S344-p antibodies, we examined in more detail the phosphorylation of Xchk1 expressed in egg extracts. […] Following the incubation, the recombinant proteins were reisolated with glutathione agarose and detected by immunoblot with anti-GST antibodies and anti-S344-p antibodies.
Following 90 minute incubation, the preparation was diluted in 400 μL of dilution buffer (10 mM HEPES at pH 7.5, 150 mM NaCl, 20 mM β-glycerolphosphate, 2.5 mM EGTA, and 0.1% CHAPS). Recombinant Xchk1 proteins were isolated with glutathione agarose, washed, eluted, subjected to SDS-PAGE, and immunoblotted with either anti-GST antibodies (Santa Cruz Biotechnology) or anti-S344-p antibodies.

ATR = ATR (Homo sapiens, UniProt Q13535); conditions: cited from earlier work
TOR = TOR (Homo sapiens, UniProt P42345); conditions: cited from earlier work
Xatr [1] = target: T1, Xatr (Xenopus laevis, UniProt Q9DE14); test: Xatr kinase assay: phosphorylation of model substrate PHAS-I by anti-Xatr immunoprecipitates; assay type: biochemical; parameters: Xatr was immunoprecipitated from Xenopus egg extracts using an anti-Xatr antibody; from tissue; host or cells: Xenopus egg extracts (immunoprecipitate with anti-peptide 1617-1630 antibody); conditions: 0.04, 0.2, 1 or 5 mM caffeine; anti-Xatr immunoprecipitates from egg extracts; autoradiography
T1 sequence (Q9DE14 whole entry Y191C/P249S/H2082P/D2362G, the tested form may be a part): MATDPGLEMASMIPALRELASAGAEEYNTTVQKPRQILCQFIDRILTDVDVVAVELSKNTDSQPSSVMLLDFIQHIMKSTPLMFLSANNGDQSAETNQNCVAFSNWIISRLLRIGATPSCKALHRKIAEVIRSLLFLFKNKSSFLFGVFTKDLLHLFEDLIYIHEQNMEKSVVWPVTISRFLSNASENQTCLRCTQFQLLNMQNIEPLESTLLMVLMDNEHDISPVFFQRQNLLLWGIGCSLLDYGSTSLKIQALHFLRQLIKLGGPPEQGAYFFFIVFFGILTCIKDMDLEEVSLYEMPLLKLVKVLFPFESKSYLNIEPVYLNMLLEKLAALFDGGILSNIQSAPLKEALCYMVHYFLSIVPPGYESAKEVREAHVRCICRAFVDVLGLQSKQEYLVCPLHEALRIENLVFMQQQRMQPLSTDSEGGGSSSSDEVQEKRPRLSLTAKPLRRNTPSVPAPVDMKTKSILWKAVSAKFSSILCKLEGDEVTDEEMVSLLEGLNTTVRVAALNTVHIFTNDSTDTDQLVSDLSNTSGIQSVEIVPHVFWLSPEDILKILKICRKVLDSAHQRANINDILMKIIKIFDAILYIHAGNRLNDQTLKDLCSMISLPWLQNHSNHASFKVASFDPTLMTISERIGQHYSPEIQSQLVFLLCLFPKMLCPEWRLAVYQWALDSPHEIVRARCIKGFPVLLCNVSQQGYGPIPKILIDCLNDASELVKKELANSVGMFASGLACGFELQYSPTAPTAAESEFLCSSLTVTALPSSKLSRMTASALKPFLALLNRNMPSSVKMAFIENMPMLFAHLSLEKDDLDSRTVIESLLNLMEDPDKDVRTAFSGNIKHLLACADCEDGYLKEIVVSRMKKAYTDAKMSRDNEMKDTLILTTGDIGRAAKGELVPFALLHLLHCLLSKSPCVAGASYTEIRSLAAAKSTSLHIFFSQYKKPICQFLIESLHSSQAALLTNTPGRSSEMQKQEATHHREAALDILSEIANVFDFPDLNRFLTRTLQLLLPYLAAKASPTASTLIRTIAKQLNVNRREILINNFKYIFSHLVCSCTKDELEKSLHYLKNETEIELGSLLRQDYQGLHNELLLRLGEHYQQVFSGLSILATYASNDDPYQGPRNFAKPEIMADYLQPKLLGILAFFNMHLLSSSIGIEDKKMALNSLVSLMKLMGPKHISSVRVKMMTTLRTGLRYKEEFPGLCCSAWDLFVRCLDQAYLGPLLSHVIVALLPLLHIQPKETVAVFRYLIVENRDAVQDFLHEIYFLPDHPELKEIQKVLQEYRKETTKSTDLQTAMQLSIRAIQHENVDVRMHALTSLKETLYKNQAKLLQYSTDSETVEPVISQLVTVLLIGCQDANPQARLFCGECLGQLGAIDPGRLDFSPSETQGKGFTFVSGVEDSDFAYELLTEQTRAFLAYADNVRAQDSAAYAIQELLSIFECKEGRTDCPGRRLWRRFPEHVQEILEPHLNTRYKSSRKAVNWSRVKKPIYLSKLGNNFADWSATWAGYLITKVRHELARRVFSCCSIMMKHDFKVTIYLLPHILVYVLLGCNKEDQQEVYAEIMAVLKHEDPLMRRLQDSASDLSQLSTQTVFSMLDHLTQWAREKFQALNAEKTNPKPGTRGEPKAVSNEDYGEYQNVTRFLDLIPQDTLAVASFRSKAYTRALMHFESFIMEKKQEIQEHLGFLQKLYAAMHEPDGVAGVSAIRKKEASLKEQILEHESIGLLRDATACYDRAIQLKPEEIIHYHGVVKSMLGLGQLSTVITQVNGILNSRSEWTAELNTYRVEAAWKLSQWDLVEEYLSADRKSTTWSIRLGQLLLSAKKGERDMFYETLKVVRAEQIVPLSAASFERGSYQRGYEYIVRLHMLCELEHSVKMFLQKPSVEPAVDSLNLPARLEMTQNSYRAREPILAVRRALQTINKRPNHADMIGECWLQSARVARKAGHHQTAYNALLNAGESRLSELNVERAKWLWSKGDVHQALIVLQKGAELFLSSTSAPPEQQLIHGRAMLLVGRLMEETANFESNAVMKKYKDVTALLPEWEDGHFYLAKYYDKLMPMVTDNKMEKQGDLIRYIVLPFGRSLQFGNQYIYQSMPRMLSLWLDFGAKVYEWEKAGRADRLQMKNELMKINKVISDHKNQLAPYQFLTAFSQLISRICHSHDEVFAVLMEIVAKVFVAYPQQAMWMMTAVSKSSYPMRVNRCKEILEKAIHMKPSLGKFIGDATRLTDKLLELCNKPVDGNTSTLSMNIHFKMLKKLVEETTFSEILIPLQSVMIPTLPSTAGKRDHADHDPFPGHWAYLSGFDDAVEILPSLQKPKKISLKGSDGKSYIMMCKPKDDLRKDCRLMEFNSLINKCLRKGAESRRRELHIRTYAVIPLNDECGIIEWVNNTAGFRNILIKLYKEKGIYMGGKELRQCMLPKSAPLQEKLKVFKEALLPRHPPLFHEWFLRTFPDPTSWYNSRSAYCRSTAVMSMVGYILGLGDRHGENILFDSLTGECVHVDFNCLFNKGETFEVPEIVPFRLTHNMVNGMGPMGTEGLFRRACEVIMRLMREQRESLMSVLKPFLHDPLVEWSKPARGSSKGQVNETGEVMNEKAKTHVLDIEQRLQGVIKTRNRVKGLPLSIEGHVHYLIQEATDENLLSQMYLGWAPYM
Method: Given the conservation of the PIK-related kinase domain among ATR homologs, we characterized the kinase activity of Xatr. Xatr was immunoprecipitated from Xenopus egg extracts using an anti-Xatr antibody (as described in Example 1).
To further assess the relationship between Xatr and other PIK-related kinases, we next assessed the effects of caffeine on the kinase activity of Xatr. […] Briefly, kinase assays were performed by incubating anti-Xatr immunoprecipitates (lanes 1–5) or control immunoprecipitates (lanes 6–10) with the model substrate PHAS-I, in the presence of 0 (lanes 1 and 6), 0.04 mM (lanes 5 and 10), 0.2 mM (lanes 4 and 9), 1 mM (lanes 3 and 8) or 5 mM (lanes 2 and 7) caffeine. Proteins were subjected to SDS-PAGE and visualized by silver staining (bottom panel). Phosphorylation of PHAS-I was detected by autoradiography (middle panel).
METHODS: Polyclonal antibodies generated against an Xatr peptide ([…], SEQ ID NO: 11), as shown in Example 1, were used to immunoprecipitate Xatr. Immunoprecipitation and kinase assays were performed using standard methods, and as previously shown (Guo and Dunphy (2000) Mol. Biol Cell 11: 1535–1546).

Xatr [2] = target: T1, Xatr; test: Binding of Xatr to single-stranded and double-stranded DNA cellulose in egg cytosol; parameters: we examined the association of Xatr with both single and double-stranded DNA in Xenopus egg extracts; from tissue; host or cells: Xenopus interphase egg cytosol; conditions: 50 μL cytosol, with or without APH
Method: In order to functionally characterize Xatr, we examined the association of Xatr with both single and double-stranded DNA in Xenopus egg extracts, under a variety of conditions. […] Briefly, control cellulose, single-stranded DNA cellulose, or double-stranded DNA cellulose were incubated with 50 μL of cytosol in the presence or absence of APH or PCL. Washed cellulose beads were boiled in gel loading buffer, and half of this was subjected to immunoblot analysis using an Xatr polyclonal antibody prepared in Example 1.
Preparation of DNA cellulose: M13 DNA (single-stranded DNA) was prepared according to the manufacturers instructions (Amersham). pBS plasmids (pBluescript—double stranded DNA) were prepared by a standard alkaline lysis procedure. 1 mg of M13 DNA or pBluescript DNA in 1 mL of TE buffer (10 mM Tris-HCL, 1 mM EDTA at pH 8.0) was incubated with 0.3 grams of cellulose for 5 minutes at 23° C. Following incubation, the preparation was lyophilized for 18 hours. The resulting lyophilized powder was resuspended in 20 volumes of TE, incubated at 4° C. for 24 hours, washed with TE, and frozen at −70° C. until use. Naked control cellulose was prepared under the same conditions, however, the addition of either single or double stranded DNA was omitted.
Binding of Xatr to DNA cellulose: 25–100 μL of DNA cellose was incubated with 50–500 μL of interphase egg cytosol for 40 minutes at 23° C. […]

Row | Structure (SMILES) | kinase activity of ATM, sensitivity to caffeine (ATM) | half-maximal dose for inhibition of Xchk1 phosphorylation, compared with inhibition of Xatr kinase activity (Xchk1; egg extracts treated with aphidicolin, compared with FIG. 3D) | phosphorylation of Xchk1 in response to unreplicated DNA (Xchk1; egg extracts treated with aphidicolin, increasing concentrations of caffeine) | kinase activity of ATR, sensitivity to caffeine (ATR) | kinase activity of TOR, sensitivity to caffeine (TOR) | kinase activity of Xatr (phosphorylation of PHAS-I) (Xatr [1]) | phosphorylation of wildtype Xchk1 at Ser 344 (anti-S344-p immunoblot) (Xchk1; 100 μg/mL aphidicolin and sperm nuclei, 90 minutes, interphase extract) | phosphorylation of wildtype Xchk1 (phosphorylation-dependent shift in mobility) (Xchk1; 35S-labeled Xchk1 in egg extracts, presence versus absence of aphidicolin) | interaction of Xatr with DNA cellulose (Xatr [2])
1 | Cn1c(=O)c2c(ncn2C)n(C)c1=O [caffeine] | sensitive | approximately the same half-maximal dose | inhibited | sensitive | sensitive | significant decrease in phosphorylation of PHAS-I; also recorded: sensitive | – | – | –
2 | C[C@@]1(CO)[C@H](O)CC[C@@]2(C)[C@H]1CC[C@H]1C[C@@H]3C[C@@]12CC[C@]3(O)CO [aphidicolin] | – | – | – | – | – | – | phosphorylated at position 344 | phosphorylated | occurs in the presence or the absence
